Measured values: patent US10420758B2, “Indolinyl-sulfonamide inhibitors of tankyrase and methods of use thereof” (The Board of Regents of the University of Texas System, priority 2015, dated 2019)

Columns and labels:
Tnks enzymes = details: cited from earlier work
telomerase = target: T1, telomerase (Homo sapiens, UniProt O14746); assay: Digital droplet telomerase extension (ddTRAP) assay; format: cell-based; details: HeLa cells treated for 24 hrs, FIG. 4F
T1 construct: endogenous in cells; host or cells: HeLa
T1 sequence (O14746 whole entry): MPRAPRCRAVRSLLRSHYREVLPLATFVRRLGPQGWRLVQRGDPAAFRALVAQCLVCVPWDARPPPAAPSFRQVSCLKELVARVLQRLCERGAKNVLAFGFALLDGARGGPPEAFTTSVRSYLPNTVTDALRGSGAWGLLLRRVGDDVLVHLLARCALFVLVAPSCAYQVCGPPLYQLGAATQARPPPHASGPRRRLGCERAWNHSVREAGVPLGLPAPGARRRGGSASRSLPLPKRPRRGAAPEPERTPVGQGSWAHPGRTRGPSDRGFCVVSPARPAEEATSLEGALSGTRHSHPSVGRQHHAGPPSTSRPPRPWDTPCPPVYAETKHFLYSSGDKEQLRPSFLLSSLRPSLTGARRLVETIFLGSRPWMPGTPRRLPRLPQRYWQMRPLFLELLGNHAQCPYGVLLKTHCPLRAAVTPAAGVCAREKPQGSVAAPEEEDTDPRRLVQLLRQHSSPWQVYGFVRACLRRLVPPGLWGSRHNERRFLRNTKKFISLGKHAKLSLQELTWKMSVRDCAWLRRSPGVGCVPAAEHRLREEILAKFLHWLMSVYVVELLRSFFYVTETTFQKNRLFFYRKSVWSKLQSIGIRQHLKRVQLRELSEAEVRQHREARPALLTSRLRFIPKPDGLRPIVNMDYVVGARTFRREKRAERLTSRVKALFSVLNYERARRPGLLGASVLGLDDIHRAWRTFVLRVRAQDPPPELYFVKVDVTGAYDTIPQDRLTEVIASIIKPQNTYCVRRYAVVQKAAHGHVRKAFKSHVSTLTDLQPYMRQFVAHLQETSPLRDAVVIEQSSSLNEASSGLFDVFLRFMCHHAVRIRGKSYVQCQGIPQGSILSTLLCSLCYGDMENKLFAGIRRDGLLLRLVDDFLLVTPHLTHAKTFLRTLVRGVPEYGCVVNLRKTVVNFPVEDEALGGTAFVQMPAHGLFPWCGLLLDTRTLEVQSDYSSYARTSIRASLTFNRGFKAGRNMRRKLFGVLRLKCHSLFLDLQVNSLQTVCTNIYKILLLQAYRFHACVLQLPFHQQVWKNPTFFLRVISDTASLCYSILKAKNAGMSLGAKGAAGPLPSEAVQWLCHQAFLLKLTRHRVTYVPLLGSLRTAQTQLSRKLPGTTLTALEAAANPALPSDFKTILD
T1 sequence (O60832 whole entry partner): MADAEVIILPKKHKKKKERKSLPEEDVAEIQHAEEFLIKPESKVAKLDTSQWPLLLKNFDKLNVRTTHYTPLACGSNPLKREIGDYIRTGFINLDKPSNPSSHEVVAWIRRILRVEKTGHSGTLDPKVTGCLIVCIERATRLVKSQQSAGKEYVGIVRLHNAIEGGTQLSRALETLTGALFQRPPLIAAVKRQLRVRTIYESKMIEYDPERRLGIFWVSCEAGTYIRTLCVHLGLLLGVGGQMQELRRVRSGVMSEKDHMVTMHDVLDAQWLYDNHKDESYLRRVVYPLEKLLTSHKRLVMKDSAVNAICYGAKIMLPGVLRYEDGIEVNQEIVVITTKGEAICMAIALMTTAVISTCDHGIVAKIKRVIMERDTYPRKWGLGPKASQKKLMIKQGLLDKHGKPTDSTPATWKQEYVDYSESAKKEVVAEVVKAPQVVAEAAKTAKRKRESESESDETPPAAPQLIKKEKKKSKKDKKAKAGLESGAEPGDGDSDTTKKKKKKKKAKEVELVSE
T1 sequence (Q9NPE3 whole entry partner): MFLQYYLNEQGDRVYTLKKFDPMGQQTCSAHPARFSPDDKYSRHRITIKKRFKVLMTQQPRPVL
T1 sequence (Q9NX24 whole entry partner): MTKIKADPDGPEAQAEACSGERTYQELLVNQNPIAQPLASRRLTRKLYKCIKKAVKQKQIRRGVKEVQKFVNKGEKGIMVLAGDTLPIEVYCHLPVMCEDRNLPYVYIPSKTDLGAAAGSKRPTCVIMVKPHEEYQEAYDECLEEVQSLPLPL
T1 sequence (Q9NY12 whole entry partner): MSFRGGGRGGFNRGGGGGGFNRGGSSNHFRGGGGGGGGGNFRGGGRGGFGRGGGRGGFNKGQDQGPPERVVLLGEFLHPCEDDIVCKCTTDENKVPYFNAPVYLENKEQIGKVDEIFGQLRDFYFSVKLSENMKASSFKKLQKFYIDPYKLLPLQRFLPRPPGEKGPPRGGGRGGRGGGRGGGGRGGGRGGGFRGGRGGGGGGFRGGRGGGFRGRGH
T1 sequence (Q9BUR4 whole entry partner): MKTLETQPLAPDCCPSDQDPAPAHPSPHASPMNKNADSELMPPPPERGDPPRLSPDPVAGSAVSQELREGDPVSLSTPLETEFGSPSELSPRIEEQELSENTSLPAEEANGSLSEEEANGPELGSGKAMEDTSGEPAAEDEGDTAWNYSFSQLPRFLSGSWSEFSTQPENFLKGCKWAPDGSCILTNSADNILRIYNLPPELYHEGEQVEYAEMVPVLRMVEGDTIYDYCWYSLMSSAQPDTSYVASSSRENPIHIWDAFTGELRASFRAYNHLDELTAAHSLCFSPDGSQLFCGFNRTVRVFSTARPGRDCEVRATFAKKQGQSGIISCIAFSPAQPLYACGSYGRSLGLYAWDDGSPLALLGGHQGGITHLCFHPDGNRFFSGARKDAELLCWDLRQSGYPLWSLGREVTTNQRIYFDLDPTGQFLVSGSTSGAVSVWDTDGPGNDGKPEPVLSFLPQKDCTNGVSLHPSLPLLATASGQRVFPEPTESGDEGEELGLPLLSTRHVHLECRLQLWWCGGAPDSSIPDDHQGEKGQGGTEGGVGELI
Source text: FIGS. 4A-4F show Tnks inhibitors induce telomeric stress in human cells independently of Wnt/β-catenin pathway inhibition. (FIG. 4A) Porcn inhibitors afford a Tnks-independent approach to disrupting Wnt/β-catenin signaling. Chemicals targeting the Wnt acyltransferase Porcn abrogate Wnt palmitoylation which in turn results in loss of activity of the Frizzled (Fzd) family of Wnt receptors. Fzd receptors directly induce activation of the cytoplasmic signaling molecule Dishevelled (Dvl) in a ligand-dependent manner, which in turn results in activation of β-catenin and transcription mediated by the TCF family of DNA binding proteins. […] The appearance of co-localized Terf2 and pH2A.X (an indicator of DNA damage at the telomere ends; Telomere Induced Foci or TIFs) was scored using indirect immunofluorescence in Hela cells (expressing wild-type Apc protein). (FIG. 4C) Quantification of results represented in “B”. Cells with >5 TIFs were scored as positive for telomeric damage (left bars). […]
The ddTRAP assay was performed as previously described (Ludlow, et al., 2014). […] Fluorescence was quantitated using a QX200 droplet reader (Bio-Rad) in the 6-Fam channel. Thresholds for quantitation were determined by comparison to a telomerase negative fibroblast cell line and no cell input negative control samples and untreated Hela cell positive control samples.

Compound: O=C(Nc1cccc2cccnc12)c1ccc(N2C(=O)[C@@H]3[C@H](C2=O)[C@@H]2C=C[C@H]3C2)cc1 [IWR-1]
- specificity for Tnks enzymes over several other PARPs compared to XAV-939 (Tnks enzymes): ~100 fold
- telomerase activity (telomerase): direct inactivation of telomerase by Tnks inhibitors was ruled out
